Non-standard residues stand in square brackets, D forms with d. Residues, ends and D or L forms follow the SMILES beside them.
Tests used:
[1] = tested on: human platelets (in platelet-rich plasma); assay: ADP-induced platelet aggregation in platelet-rich plasma (turbidimetric); assay type: cell-based; details: for maximal platelet aggregation [%] in response to 10 µM ADP: PRP, 37°C, 2 min pre-incubation, mean ± SD, n=3-7
Protocol: Fig. 4 Test of the effect of peptide 4D on the ADP-induced aggregation of human platelets (in platelet-rich plasma). Fig. 4A. This figure depicts a representative tracing of platelet aggregation induced by ADP (2µM) in the presence of peptide 4D (P4D; 500µM, final concentration), in comparison to the ADP-induced platelet aggregation in the absence of peptide 4D (control). Fig. 4B. This figure depicts a representative tracing of platelet aggregation induced by ADP (10µM) in the presence of peptide 4D (P4D, 500µM final concentration), in comparison to the ADP-induced platelet aggregation in the absence of peptide 4D (control).
Platelet aggregation in platelet-rich plasma (PRP) was carried-out by using the turbidimetric method in a platelet aggregometer (Chronolog, Haverstown, PA). Aliquots of the PRP were maintained at 37°C. The effect of peptide 4D on platelet aggregation was examined by utilizing three concentrations of peptide 4D (final concentrations of 100µM, 250µM and 500 µM). The PRP was incubated for 2 minutes with peptide 4D prior to the addition of ADP at final concentrations of 2µM (subthreshold concentration) or 10µM, for the initiation of platelet aggregation.

[2] = mouse, in vivo
Protocol: The concentration of peptide 4D was measured in the plasma at various time points, and is expressed in µg/ml. […] Time points of 15 min, followed by 1, 2, 4, 5, and 24 hours after the administration of peptide 4D were selected to generate the concentration of Cmax, Tmax, area under the plasma concentration time curve (AUC), drug clearance, terminal elimination half-life, and volume of distribution.
Drug pharmacokinetics (PK) in vivo is a key requirement for the evaluation of the stability and availability of peptide 4D, as a potential compound for use in the next phase of our investigations. Accordingly, PK data of peptide 4D were obtained by the Services of Bio Quant, San Diego, CA. Thus far, a single dose of the F11R peptide 4D and a time perfusion course were performed in Balb/c mice. Time points of 15 min, followed by 1, 2, 4, 5, and 24 hr after the administration of peptide 4D to animals, were selected to generate concentration vs time curves thereby allowing for the determination of the PK parameters of maximal concentration (Cmax), maximal time (Tmax), area under the plasma concentration time curve (AUC), drug clearance, terminal elimination half-life, and volume of distribution of peptide 4D.

platelets = assay: M.Ab.F11-induced platelet aggregation in vitro; assay type: cell-based; details: peptide 4D 0.3 mg (670 µg/ml), from dose-response
ApoE-/- mice = assay: Chronic treatment of ApoE-/- mice: atherosclerotic plaques and physical appearance; assay type: in vivo, mouse
Protocol: Female Apo E^-/- mice (six weeks old) of a C57BL/6J background, (Jackson Laboratory, Bar Harbor, Me), were divided into two separately-housed groups. Group 1 was treated with peptide 4D by daily, intraperitoneal injections with peptide 4D (4.3 mg/200µl) for a 3 month period. Group 2 was injected daily with an equivalent amount of diluent vehicle (200µl of 0.9% saline) for the same 3- month period. All animals were fed a regular Rodent Diet (Calories provided by protein 28.1%, fat 12.13% and carbohydrates 59.8%) for two months, then the diet was switched to a Western-type diet (TD.88137 Adjusted Calories Diet (42% from fat) (0.15% cholesterol, 21% anhydrous milk fat) (Harlan Laboratories Inc.) to induce hypercholesterolemia for a period of one month, [2]. Following 3 month of injections with either the F11R peptide 4D or the vehicle, saline, the animals were euthanized. The aortas and hearts were isolated, dissected, and the atherosclerotic lesions were analyzed.
Following euthanasia, the aortas were prepared for dissection and the aortic arches were photographed. Following dissection, en face lesion surface area assay was performed on the aortas and hearts as previously described, [4], [5]. The dissected aortas were stained with Oil-Red-O stain modified from previously described methods, [4], [6]. […] The total intimal lesion area and the necrotic core area (NE) per cross section were quantified by taking the average of 6 sections spaced 30 µm apart, beginning at the base of the aortic root. The necrotic core areas, acellular/anuclear areas (negative for hematoxylin-positive nuclei, white areas of lesion) were measured per cross section from the same slides where total intimal lesion area was measured. […] Lesion areas or necrotic areas (white areas of lesion) where measured and summarized using software Image-J. The aortas were fixed in PBS/4% formaldehyde for 3 days, washed in PBS followed by staining with 1.8% Oil-Red-O in 60% isopropanol for 15 min at 22°C, then de-stained in 60% isopropanol for 5 min. […]

inflamed endothelium = assay: Platelet adhesion to walls of blood vessels, intravital microscopy; assay type: in vivo, mice; details: intravital microscopy videos, arteriole and venule
From the text: The F11 Receptor (F11R/JAM-A; Junctional Adhesion Molecule-A; JAM-A; F11R) is a cell adhesion protein present on the surface of circulating platelets and located within the tight junctions of endothelial and epithelial cells. The data presented here confirm in-vivo evidence for the critical role of F11R/JAM-A in the formation of atherosclerotic plaques in ApoE^-/- mice and provide further strong experimental support for our work in Babinska et al. (2019). […] These mice were euthanized, and at the same time, two mice obtained from the peptide 4D-treated group were randomly-selected and euthanized, and their tissues examined histologically in comparison to the controls. […] The data presented in Fig. 3, compare the overall health and physical appearance of 10^1/2 months old ApoE^-/- mice following their termination of a 4- month injection period with either peptide 4D or the vehicle. […] Data of Fig. 5 display the pharmacokinetic analysis (PK) of peptide 4D in vivo. Data display by videos: videos depicting platelet adhesion to the walls of blood vessels using the Intravital Microscopy System are provided and available in this article as the Supplemental Files. […]

[3] = tested on: inflamed endothelial cells; details: in culture; the authors' earlier work; cited from earlier work
From the text: The data in this article focus on the F11 Receptor (F11R/JAM-A; Junctional Adhesion Molecule-A; JAM-A, F11R), a cell adhesion protein constitutively expressed on the membrane surface of circulating platelets and localized within the tight junctions of healthy endothelial cells (ECs). Previous reports have shown that F11R/JAM-A plays a critical role in the adhesion of platelets to an inflamed endothelium due to its’ pathological expression on the luminal surface of the cytokine-inflamed endothelium. Since platelet adhesion to an inflamed endothelium is an early step in the development of athero ...

With `CC(C)[C@H](NC(=O)[C@H](CO)NC(=O)[C@H](N)CCCCN)C(=O)N[C@H](C(=O)N[C@H](CCCNC(=N)N)C(=O)N[C@@H](CCC(=O)O)C(=O)N[C@@H](CC(=O)O)C(=O)N[C@H](C(=O)NCC(=O)N[C@H](C(=O)N[C@@H](Cc1ccc(O)cc1)C(=O)N[C@H](C(=O)N[C@@H](CS)C(N)=O)[C@@H](C)O)[C@@H](C)O)[C@@H](C)O)[C@@H](C)O` [peptide 4D] (H-[dK]SVT[dR]EDTGTYTC-NH2; N-terminus and C-terminus assumed) the “effect on ADP-induced platelet aggregation” value ([1]; Fig. 4 and Table 1, ADP 2 or 10 µM, peptide 100-500 µM) was “lack of an inhibitory effect”, the “maximal platelet aggregation [%] in response to 10 µM ADP” value (“maximal platelet aggregation [%]” below) ([1]; P4D 100 µM) was 70 ± 12% and the “maximal platelet aggregation [%]” value ([1]; P4D 250 µM) was 73 ± 13%. For the same molecule, the “maximal platelet aggregation [%]” value ([1]; P4D 500 µM) was 74 ± 20%, the Tmax [2] was 18 min and the half-life [2] was over 210 min. The “inhibition of M.Ab.F11-induced platelet aggregation” value (platelets) was “completely inhibited”, the “plaque accumulation in the aortic arch and the whole aorta” value (ApoE-/- mice; daily i.p. 215 mg/kg (4.3 mg/200 µl) for 3 months, versus saline controls, two mice per group, Fig. 2) was “much diminished plaque accumulation” and the external physical appearance (ApoE-/- mice; daily i.p. for 3 months, versus saline controls, Fig. 1) was “healthy”. For the same molecule, the “skin lesion on the chest” value (ApoE-/- mice; daily i.p. for 4 months, then stopped, observed at 10 1/2 months of age, Fig. 3B) was “lack of lesion”, the “adhesion of platelets onto the inflamed endothelium” value (inflamed endothelium) was “significant blockade” and the “adhesion of platelets to the inflamed endothelial cells” value [3] was “could be blocked”.

Reference: article PMC7206208, “In vivo data: treatment with the F11R/JAM-A peptide 4D decreases mortality and reduces the generation of atherosclerotic plaques in ApoE-deficient mice” (Data in Brief, 2020)
